Data from patent US12528801B2 (Givaudan SA, priority 2019, dated 2026).
pEC50: −log10 of the molar value.

target: T1, hTRPM8 (Homo sapiens, UniProt Q7Z2W7); assay: Assay on TRPM8 modulators: calcium imaging (Fluo-4, Flexstation) in HEK293 cell line stably expressing hTRPM8; format: cell-based; conditions: HEK293 cells stably expressing hTRPM8; calcium influx, Fluo-4, Flexstation 3; sigmoidal dose-response fit
T1 construct: expressed in transfected cells
How it was run: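 HEK293 cells stably expressing hTRPM8 were loaded with Fluo-4 AM plus probenecid and kept in HEPES buffer, pH 7.4. Calcium influx to serially diluted compounds was recorded for 120 s. Maximal activation was referenced to solvent control and 31.6 μM menthol, with EC values from sigmoidal dose-response fits.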

T1 sequence (Q7Z2W7 whole entry): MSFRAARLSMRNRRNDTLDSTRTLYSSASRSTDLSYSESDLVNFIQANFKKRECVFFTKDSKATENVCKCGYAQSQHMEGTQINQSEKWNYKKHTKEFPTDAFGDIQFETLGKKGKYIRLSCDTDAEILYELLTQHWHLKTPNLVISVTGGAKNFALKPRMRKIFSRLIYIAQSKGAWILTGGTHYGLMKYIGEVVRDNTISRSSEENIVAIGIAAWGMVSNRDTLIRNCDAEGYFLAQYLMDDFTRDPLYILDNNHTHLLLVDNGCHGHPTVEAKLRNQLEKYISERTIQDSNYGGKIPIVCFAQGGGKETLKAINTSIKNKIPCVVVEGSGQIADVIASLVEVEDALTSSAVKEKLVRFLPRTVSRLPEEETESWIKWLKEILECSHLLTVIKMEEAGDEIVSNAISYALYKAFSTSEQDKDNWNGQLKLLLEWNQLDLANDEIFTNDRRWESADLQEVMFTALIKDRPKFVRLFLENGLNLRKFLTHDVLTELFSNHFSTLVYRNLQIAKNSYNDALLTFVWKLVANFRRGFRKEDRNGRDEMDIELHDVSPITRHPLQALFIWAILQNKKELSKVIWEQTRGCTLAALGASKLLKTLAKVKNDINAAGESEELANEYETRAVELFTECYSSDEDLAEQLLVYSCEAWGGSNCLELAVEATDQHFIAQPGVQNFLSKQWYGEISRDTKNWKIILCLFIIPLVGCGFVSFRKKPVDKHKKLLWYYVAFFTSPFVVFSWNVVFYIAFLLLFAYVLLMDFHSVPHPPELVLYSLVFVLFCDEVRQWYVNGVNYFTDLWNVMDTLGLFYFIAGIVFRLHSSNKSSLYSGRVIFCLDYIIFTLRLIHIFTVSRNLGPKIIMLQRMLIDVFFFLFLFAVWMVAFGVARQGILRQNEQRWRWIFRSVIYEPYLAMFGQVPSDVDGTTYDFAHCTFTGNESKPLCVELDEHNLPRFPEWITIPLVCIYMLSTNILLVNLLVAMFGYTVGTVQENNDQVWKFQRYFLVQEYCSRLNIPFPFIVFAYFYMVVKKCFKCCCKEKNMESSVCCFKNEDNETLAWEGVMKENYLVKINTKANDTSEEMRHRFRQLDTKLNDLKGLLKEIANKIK

SMILES | pEC50
CSC(C)C(=O)N1CCCCC1c1nc(-c2ccc3nccnc3c2)c[nH]1 (stereo not shown) [Compound 116, 2-(methylthio)-1-(2-(4-(quinoxalin-6-yl)-1H-imidazol-2-yl)piperidin-1-yl)propan-1-one] | 6.00 to 6.52
CSC(C)C(=O)N1CCCCC1c1nc(-c2ccsc2)c[nH]1 (stereo not shown) [Compound 117, 2-(methylthio)-1-(2-(4-(thiophen-3-yl)-1H-imidazol-2-yl)piperidin-1-yl)propan-1-one] | 6.52 to 7.30
CSCC(=O)N1CCCCC1c1nc(-c2ccccc2)c[nH]1 (stereo not shown) [Compound 118, 2-(methylthio)-1-(2-(4-phenyl-1H-imidazol-2-yl)piperidin-1-yl)ethan-1-one] | 6.00 to 6.52
CSC(C)C(=O)N1CCCCC1c1ncc(-c2ccccc2C(F)(F)F)[nH]1 (stereo not shown) [Compound 119, 2-(methylthio)-1-(2-(5-(2-(trifluoromethyl)phenyl)-1H-imidazol-2-yl)piperidin-1-yl)propan-1-one] | 6.00 to 6.52
CSC(C)C(=O)N1CCCCC1c1ncc(-c2ccc(F)c(F)c2F)[nH]1 (stereo not shown) [Compound 120, 2-(methylthio)-1-(2-(5-(2,3,4-trifluorophenyl)-1H-imidazol-2-yl)piperidin-1-yl)propan-1-one] | > 7.30
CSC(C)C(=O)N1CCCCC1c1ncc(-c2cc(F)c(F)cc2F)[nH]1 (stereo not shown) [Compound 121, 2-(methylthio)-1-(2-(5-(2,4,5-trifluorophenyl)-1H-imidazol-2-yl)piperidin-1-yl)propan-1-one] | > 7.30
CSC(C)C(=O)N1CCCCC1c1ncc(-c2cccc(C(F)(F)F)c2)[nH]1 (stereo not shown) [Compound 122, 2-(methylthio)-1-(2-(5-(3-(trifluoromethyl)phenyl)-1H-imidazol-2-yl)piperidin-1-yl)propan-1-one] | 6.52 to 7.30
CSC(C)C(=O)N1CCCCC1c1ncc(-c2ccc(OC(F)(F)F)cc2)[nH]1 (stereo not shown) [Compound 123, 2-(methylthio)-1-(2-(5-(4-(trifluoromethoxy)phenyl)-1H-imidazol-2-yl)piperidin-1-yl)propan-1-one] | > 7.30
CCCc1ccc(-c2cnc(C3CCCCN3C(=O)C(C)SC)[nH]2)cc1 (stereo not shown) [Compound 125, 2-(methylthio)-1-(2-(5-(4-propylphenyl)-1H-imidazol-2-yl)piperidin-1-yl)propan-1-one] | > 7.30
C=Cc1ccc(-c2cnc(C3CCCCN3C(=O)C(C)SC)[nH]2)cc1 (stereo not shown) [Compound 126, 2-(methylthio)-1-(2-(5-(4-vinylphenyl)-1H-imidazol-2-yl)piperidin-1-yl)propan-1-one] | > 7.30
CSC(C)C(=O)N1CCCCC1c1nnc(-c2ccc(C)cc2)o1 (stereo not shown) [Compound 128, 2-(methylthio)-1-(2-(5-(p-tolyl)-1,3,4-oxadiazol-2-yl)piperidin-1-yl)propan-1-one] | 6.00 to 6.52
CSC(C)C(=O)N1CCCCCC1c1ncc(-c2ccc(C)cc2)[nH]1 (stereo not shown) [Compound 129, 2-(methylthio)-1-(2-(5-(p-tolyl)-1H-imidazol-2-yl)azepan-1-yl)propan-1-one] | > 7.30
CSC(C)C(=O)N1CCCCC1c1nnc(-c2ccc(C)cc2)[nH]1 (stereo not shown) [Compound 131, 2-(methylthio)-1-(2-(5-(p-tolyl)-4H-1,2,4-triazol-3-yl)piperidin-1-yl)propan-1-one] | > 7.30
CSC(C)C(=O)N1CCCCC1c1cc(-c2ccc(C)cc2)on1 (stereo not shown) [Compound 132, 2-(methylthio)-1-(2-(5-(p-toly)isoxazol-3-yl)piperidin-1-yl)propan-1-one] | 6.52 to 7.30
CSC(C)C(=O)N1CCCCC1c1ncc(-c2ccc(C)cc2)o1 (stereo not shown) [Compound 133, 2-(methylthio)-1-(2-(5-(p-tolyl)oxazol-2-yl)piperidin-1-yl)propan-1-one] | > 7.30
CSC(C)C(=O)N1CCCCC1c1ncc(-c2ccc(C)cc2)s1 (stereo not shown) [Compound 134, 2-(methylthio)-1-(2-(5-(p-tolyl)thiazol-2-yl)piperidin-1-yl)propan-1-one] | > 7.30
CSC(C)C(=O)N1CCC[C@@H]1c1ncc(-c2ccccc2)[nH]1 (stereo partly drawn) [Compound 136, 2-(methylthio)-1-((R)-2-(5-phenyl-1H-imidazol-2-yl)pyrrolidin-1-yl)propan-1-one] | 4.46 to 6.00
CSC(C)C(=O)N1CCCCC1c1nnc(-c2ccccc2)[nH]1 (stereo not shown) [Compound 137, 2-(methylthio)-1-(2-(5-phenyl-4H-1,2,4-triazol-3-yl)piperidin-1-yl)propan-1-one] | 6.52 to 7.30
CSC(C)C(=O)N1CCCCC1c1ncc(-c2ccccc2)o1 (stereo not shown) [Compound 138, 2-(methylthio)-1-(2-(5-phenyloxazol-2-yl)piperidin-1-yl)propan-1-one] | 6.00 to 6.52
CSC(C)C(=O)N1CSCC1c1ncc(-c2ccc(C)cc2)[nH]1 (stereo not shown) [Compound 139, 2-(methylthio)-1-(4-(5-(p-tolyl)-1H-imidazol-2-yl)thiazolidin-3-yl)propan-1-one] | 6.52 to 7.30
C=C(C)C(C)(C)C(=O)N1CCCCC1c1ncc(-c2ccc(C)cc2)[nH]1 (stereo not shown) [Compound 140, 2,2,3-trimethyl-1-(2-(5-(p-tolyl)-1H-imidazol-2-yl)piperidin-1-yl)but-3-en-1-one] | > 7.30
Cc1ccc(-c2cnc(C3CCCCN3C(=O)C(C)(C)C(C)C)[nH]2)cc1 (stereo not shown) [Compound 141, 2,2,3-trimethyl-1-(2-(5-(p-tolyl)-1H-imidazol-2-yl)piperidin-1-yl)butan-1-one] | > 7.30

SMILES | pEC50
C=CC(C)(C)C(=O)N1CCCCC1c1ncc(-c2ccc(C)cc2)[nH]1 (stereo not shown) [Compound 142, 2,2-dimethyl-1-(2-(5-(p-tolyl)-1H-imidazol-2-yl)piperidin-1-yl)but-3-en-1-one] | > 7.30
CCC(C)(C)C(=O)N1CCCCC1c1ncc(-c2ccc(C)cc2)[nH]1 (stereo not shown) [Compound 143, 2,2-dimethyl-1-(2-(5-(p-tolyl)-1H-imidazol-2-yl)piperidin-1-yl)butan-1-one] | > 7.30
COCC(OC)C(=O)N1CCCCC1c1nc(-c2ccccc2)c[nH]1 (stereo not shown) [Compound 144, 2,3-dimethoxy-1-(2-(4-phenyl-1H-imidazol-2-yl)piperidin-1-yl)propan-1-one] | 4.46 to 6.00
CC(C)C(C)C(=O)N1CCCCC1c1nc(-c2ccccc2)c[nH]1 (stereo not shown) [Compound 145, 2,3-dimethyl-1-(2-(4-phenyl-1H-imidazol-2-yl)piperidin-1-yl)butan-1-one] | 6.52 to 7.30
CSC(C)C(=O)N1CCCCC1c1nc(-c2cc(F)c(C#N)cc2F)c[nH]1 (stereo not shown) [Compound 146, 2,5-difluoro-4-(2-(1-(2-(methylthio)propanoyl)piperidin-2-yl)-1H-imidazol-4-yl)benzonitrile] | > 7.30
Cc1ccc(-c2cnc(C3CCCCN3C(=O)C(C)N)[nH]2)cc1 (stereo not shown) [Compound 147, 2-amino-1-(2-(5-(p-toly)-1H-imidazol-2-yl)piperidin-1-yl)propan-1-one] | 4.46 to 6.00
CC(C(=O)N1CCCCC1c1nc(-c2ccccc2)c[nH]1)C1CCC1 (stereo not shown) [Compound 148, 2-cyclobutyl-1-(2-(4-phenyl-1H-imidazol-2-yl)piperidin-1-yl)propan-1-one] | 6.52 to 7.30
CCOC(C(=O)N1CCCCC1c1nc(-c2ccccc2)c[nH]1)C1CCCC1 (stereo not shown) [Compound 149, 2-cyclopentyl-2-ethoxy-1-(2-(4-phenyl-1H-imidazol-2-yl)piperidin-1-yl)ethan-1-one] | 4.46 to 6.00
O=C(CC1CC1)N1CCCCC1c1nc(-c2ccccc2)c[nH]1 (stereo not shown) [Compound 150, 2-cyclopropyl-1-(2-(4-phenyl-1H-imidazol-2-yl)piperidin-1-yl)ethan-1-one] | 4.46 to 6.00
CC(C(=O)N1CCCCC1c1nc(-c2ccccc2)c[nH]1)C1CC1 (stereo not shown) [Compound 151, 2-cyclopropyl-1-(2-(4-phenyl-1H-imidazol-2-yl)piperidin-1-yl)propan-1-one] | 6.52 to 7.30
COC(C(=O)N1CCCCC1c1nc(-c2ccccc2)c[nH]1)C1CC1 (stereo not shown) [Compound 152, 2-cyclopropyl-2-methoxy-1-(2-(4-phenyl-1H-imidazol-2-yl)piperidin-1-yl)ethan-1-one] | 6.00 to 6.52
CCOC(C)C(=O)N1CCCCC1c1ncc(-c2cccc(F)c2)[nH]1 (stereo not shown) [Compound 153, 2-ethoxy-1-(2-(5-(3-fluorophenyl)-1H-imidazol-2-yl)piperidin-1-yl)propan-1-one] | 4.46 to 6.00
CC=C(CC)C(=O)N1CCCCC1c1nc(-c2ccccc2)c[nH]1 (stereo not shown) [Compound 154, 2-ethyl-1-(2-(4-phenyl-1H-imidazol-2-yl)piperidin-1-yl)but-2-en-1-one] | 6.52 to 7.30
CCC(CC)C(=O)N1CCCCC1c1nc(-c2ccccc2)c[nH]1 (stereo not shown) [Compound 155, 2-ethyl-1-(2-(4-phenyl-1H-imidazol-2-yl)piperidin-1-yl)butan-1-one] | 6.52 to 7.30
CSC(C)C(=O)N1CCCCC1c1ncc(-c2ccc(C#N)c(F)c2)[nH]1 (stereo not shown) [Compound 156, 2-fluoro-4-(2-(1-(2-(methylthio)propanoyl)piperidin-2-yl)-1H-imidazol-5-yl)benzonitrile] | > 7.30
Cc1ccc(-c2cnc(C3CCCCN3C(=O)C(C)S)[nH]2)cc1 (stereo not shown) [Compound 157, 2-mercapto-1-(2-(5-(p-tolyl)-1H-imidazol-2-yl)piperidin-1-yl)propan-1-one] | 6.52 to 7.30
CCC(OC)C(=O)N1CCCCC1c1nc(-c2ccccc2)c[nH]1 (stereo not shown) [Compound 158, 2-methoxy-1-(2-(4-phenyl-1H-imidazol-2-yl)piperidin-1-yl)butan-1-one] | 6.00 to 6.52
COC(C)C(=O)N1CCCCC1c1nc(-c2ccccc2)c[nH]1 (stereo not shown) [Compound 159, 2-methoxy-1-(2-(4-phenyl-1H-imidazol-2-yl)piperidin-1-yl)propan-1-one] | 4.46 to 6.00
COC(C)C(=O)N1CCCCC1c1ncc(-c2ccc(C)cc2)[nH]1 (stereo not shown) [Compound 160, 2-methoxy-1-(2-(5-(p-tolyl)-1H-imidazol-2-yl)piperidin-1-yl)propan-1-one] | 6.52 to 7.30
CCC(C)C(=O)N1CCCCC1c1nc(-c2ccccc2)c[nH]1 (stereo not shown) [Compound 161, 2-methyl-1-(2-(4-phenyl-1H-imidazol-2-yl)piperidin-1-yl)butan-1-one] | 6.52 to 7.30
CC(C)C(=O)N1CCCCC1c1nc(-c2ccccc2)c[nH]1 (stereo not shown) [Compound 162, 2-methyl-1-(2-(4-phenyl-1H-imidazol-2-yl)piperidin-1-yl)propan-1-one] | 6.00 to 6.52
